# Source: patent US5045566A, “Novel imidate insecticides” (ICI Americas Inc., priority 1989, dated 1991)
# Assays:
# Assay type in all cases: in vivo
# [1] = tested on: Aster Leafhopper [Macrosteles fascifrens (Stal)]; test: Aster leafhopper on dipped oat seedlings (LH), 48 hours; settings: percent in solution, adults/nymphs
# Procedure, shortened: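 Three ~10 cm oat seedlings per cup were dipped 2-3 seconds in 50-50 acetone-water compound solutions, dried, and caged with ten adult/nymph leafhoppers. Mortality was counted after 48 hours at concentrations from 0.05% downward. LC50, as percent compound in solution, came from dosage-mortality curves.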
# [2] = tested on: Tobacco Budworm [Heliothis virescens (Fabricius)] eggs; test: Tobacco budworm eggs (TBW-E); settings: percent in solution; 2-day old eggs
# Procedure, shortened: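 2-day eggs on paper towel, acetone dip, 0.1% and below; petri dish with larval diet, 78° F. Mortality read after control hatch and larval feeding. LC50 = % compound in solution, from dose-mortality curve.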
# [3] = tested on: Black Bean Aphid [Aphis fabae (Scop.)]; test: Black bean aphid spray test on nasturtium (BBA), 48 hours; settings: percent of test compound in sprayed solution
# Procedure, shortened: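 LC50, given as percent test compound in the sprayed liquid, was calculated from dosage-mortality curves using concentrations from 0.05% downward. Sprays in 50:50 acetone-water went to runoff on ~5 cm nasturtiums carrying 25-50 aphids of mixed ages, one day after infestation. Deaths were counted 48 h later under greenhouse conditions.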
# [4] = tested on: Housefly [Musca domestica]; test: Housefly contact mortality in dishes (HF), 48 hours; settings: μg of test compound per 25 female flies
# Procedure, shortened: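 Acetone solutions (with 0.01% peanut oil) dried onto dish bottoms, then 25 female flies, 1-2 days old, caged over the residue with sugar water. Mortality scored at 48 hours; LC50 from dosage-mortality curves, in μg per 25 female flies, top level 100 μg.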
# [5] = tested on: Maize weevil [Sitophilus zeamais (Motschulsky)]; test: Maize weevil on dipped corn seeds (MW), 48 hours; settings: percent in solution, adult weevils
# Procedure, shortened: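 LC50, given as percent of compound in dipping solution, comes from dosage-mortality curves over concentrations descending from 0.01%. Four corn seeds soaked 2-3 s in 50:50 acetone:water solution were dried and held with 10 adult weevils, about 25° C, mortality read after 48 h.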
# [6] = tested on: Cabbage Looper [Trichoplusia ni (Hubner)]; test: Cabbage looper leaf dip (CL), 3-5 days; settings: percent in solution, second-instar larvae
# Procedure, shortened: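 LC50 values, given as percent test compound in solution, were calculated from dosage-mortality curves. Squash cotyledons were immersed 2-3 s in acetone-water (50-50) dilutions starting at 0.1%, dried on a screen, then infested with five second-instar larvae. Mortality was read 3-5 days on.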
Structure (SMILES),LC50 LH [1] [%],LC50 TBW E (eggs) [2] [%],LC50 BBA [3] [%],LC50 HF [4] [µg],LC50 MW [5] [%],LC50 CL [6] [%]
CSc1ccc(Oc2cccc(COC(=Nc3ccc(F)c(Cl)c3)C(C)C)c2)cc1 [Compound 256],> 0.05,0.1,0.03,> 100,> 0.01,0.007
CC(C)C(=Nc1ccc(F)cc1)OCc1cccc(Oc2ccc(Br)cc2)c1 [Compound 259],> 0.05,0.05,0.006,15,> 0.01,0.0003
CC(C)C(=Nc1cccc([N+](=O)[O-])c1)OCc1cccc(Oc2ccc(Cl)cc2)c1 [Compound 271],> 0.05,0.1,> 0.05,27,> 0.01,0.0004
CC(C)C(=Nc1ccc(F)c([N+](=O)[O-])c1)OCc1cccc(Oc2ccccc2)c1 [Compound 293],> 0.05,> 0.1,> 0.05,19,> 0.01,0.0045
CC(C)(F)C(=Nc1ccc(F)c(Cl)c1)OCc1cccc(Oc2ccc(F)cc2F)c1 [Compound 315],> 0.05,> 0.1,> 0.05,> 100,> 0.01,0.002
CC(C)(F)C(=Nc1ccc(F)c(Cl)c1)OCc1cc(Oc2ccc(F)cc2)ccc1F [Compound 316],> 0.05,> 0.1,> 0.05,100,> 0.01,0.0015
CC(C)C(=Nc1cccc(C(C)(C)C)c1)OCc1cccc(Oc2ccc(F)cc2)c1 [Compound 350],> 0.05,> 0.1,> 0.05,> 100,> 0.01,0.0045
CC(C)C(=Nc1ccc(Br)cc1F)OCc1cccc(Oc2ccc(F)cc2)c1 [Compound 351],> 0.05,> 0.1,0.001,26,> 0.01,0.0007
CSc1ccc(N=C(OCc2ccc(F)c(Oc3ccccc3)c2)C(C)C)cc1 [Compound 353],> 0.05,> 0.1,0.001,< 100,> 0.01,> 0.1
Cc1ccc(N=C(OCc2ccc(F)c(Oc3ccccc3)c2)C(C)C)cc1F [Compound 354],< 0.05,0.018,0.001,< 100,0.0068,> 0.1
Cc1ccc(N=C(OCc2ccc(F)c(Oc3ccc(F)cc3)c2)C(C)C)cc1F [Compound 355],< 0.05,> 0.1,0.0006,< 100,> 0.01,> 0.1
Cc1ccc(N=C(OCc2ccc(F)c(Oc3ccccc3)c2)C(C)C)cc1Cl [Compound 356],< 0.05,0.025,0.001,< 100,> 0.01,> 0.1
Cc1ccc(N=C(OCc2ccc(F)c(Oc3ccc(F)cc3)c2)C(C)C)cc1Cl [Compound 357],< 0.05,> 0.1,0.0003,< 100,0.01,> 0.1
Cc1cc(N=C(OCc2ccc(F)c(Oc3ccccc3)c2)C(C)C)ccc1Br [Compound 358],< 0.05,> 0.1,0.0003,< 100,> 0.01,> 0.1
Cc1cc(N=C(OCc2ccc(F)c(Oc3ccc(F)cc3)c2)C(C)C)ccc1Br [Compound 359],0.05,0.023,0.0006,< 100,> 0.01,> 0.1
CCc1ccc(N=C(OCc2ccc(F)c(Oc3ccccc3)c2)C(C)C)cc1 [Compound 360],< 0.05,> 0.1,0.0006,< 100,> 0.01,0.006
CCc1ccc(N=C(OCc2ccc(F)c(Oc3ccc(F)cc3)c2)C(C)C)cc1 [Compound 361],< 0.05,0.04,0.0003,< 100,> 0.01,0.001
CSc1cccc(N=C(OCc2ccc(F)c(Oc3ccccc3)c2)C(C)C)c1 [Compound 362],> 0.05,> 0.1,0.005,< 100,> 0.01,> 0.1
COc1ccc(N=C(OCc2ccc(F)c(Oc3ccc(F)cc3)c2)C(C)C)cc1OC [Compound 363],> 0.05,> 0.1,0.005,< 100,> 0.01,> 0.1
CC(C)C(=Nc1ccc(Br)c(C(F)(F)F)c1)OCc1ccc(F)c(Oc2ccc(F)cc2)c1 [Compound 364],< 0.05,0.025,0.001,< 100,> 0.01,0.00045
CC(C)C(=Nc1ccc(C(F)(F)F)cc1)OCc1cccc(Oc2ccc(Cl)cc2)c1 [Compound 365],< 0.05,0.038,0.003,> 100,> 0.01,0.00025
CC(C)C(=Nc1ccc2c(c1)OCO2)OCc1ccc(F)c(Oc2ccc(Cl)cc2)c1 [Compound 366],0.05,0.012,0.0006,< 100,> 0.01,0.0007
CC(C)C(=Nc1ccc2c(c1)OCO2)OCc1cccc(Oc2ccc(C(C)(C)C)cc2)c1 [Compound 367],> 0.05,> 0.1,> 0.05,> 100,> 0.01,< 0.1
CC(C)C(=Nc1ccc(F)cc1)OCCc1cccc(Oc2ccccc2)c1 [Compound 456],> 0.05,> 0.05,0.01,> 100,> 0.01,0.017
CC(C)C(=Nc1ccc(F)c(Cl)c1)OCc1ccc(OCc2ccccc2)cc1 [Compound 475],> 0.05,> 0.1,> 0.05,> 100,> 0.01,0.008
C=CCOc1cccc(COC(=Nc2ccc(F)c(Cl)c2)C(C)C)c1 [Compound 479],> 0.05,> 0.1,> 0.05,66,> 0.01,0.013
CC(C)C(=Nc1ccc(F)c(Cl)c1)OCc1cccc(OCc2ccc(F)cc2)c1 [Compound 490],> 0.05,> 0.1,> 0.05,> 100,> 0.01,0.0045
CC(C)C(=Nc1ccc(F)c(Cl)c1)OCc1cccc(Oc2ccc(Br)cc2)n1 [Compound 492],> 0.05,0.015,> 0.05,15,> 0.01,0.00028
CC(C)C(=Nc1ccc(F)c(Cl)c1)OCc1cccc(Nc2ccc(F)cc2)c1 [Compound 512],> 0.05,> 0.1,> 0.05,35,> 0.01,0.003
CC(C)C(=Nc1cccc(C(F)(F)F)c1)OCc1cccc(Nc2ccc(F)cc2)c1 [Compound 513],> 0.05,> 0.1,> 0.05,81,> 0.01,0.007
